Results from ChEMBL document CHEMBL1201862, “PubChem BioAssay data set” (2004).
Where “and” joins values, the source holds several entries; their conditions need not be identical. Identical values can stand only once.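 These data come from cells grown in 96-well plates and exposed to compound for 48 hours at five concentrations. GI50: concentration for 50% inhibition of growth.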 Calls of active or inactive are those of the source. Rule as the data show it: active = GI50 up to about 1.1 µM and inactive = higher.

How the values were obtained:
Assay in all cases: DTP human tumour cell line panel, 48 h
[1] = system: A498
[2] = system: BT-549
[3] = system: CCRF-CEM
[4] = system: COLO 205
[5] = system: HCC 2998
[6] = system: HCT-116
[7] = system: HCT-15
[8] = system: HOP-92
[9] = system: IGROV-1
[10] = system: K562
[11] = system: M14
[12] = system: MCF7
[13] = system: MDA-MB-231
[14] = system: MDA-MB-435
[15] = system: MOLT-4
[16] = system: NCI-H23
[17] = system: NCI-H460
[18] = system: NCI-H522
[19] = system: NCI/ADR-RES
[20] = system: OVCAR-4
[21] = system: OVCAR-5
[22] = system: OVCAR-8
[23] = system: PC-3
[24] = system: RXF 393
[25] = system: SF-268
[26] = system: SF-539
[27] = system: SK-MEL-2
[28] = system: SK-OV-3
[29] = system: SN12C
[30] = system: SNB-19
[31] = system: SNB-75
[32] = system: SR
[33] = system: SW-620
[34] = system: T47D
[35] = system: U-251
[36] = system: UACC-257
[37] = system: UACC-62

## CC(C)CC(C/C=C1/CC(CO)(COC(=O)C(C)(C)C)OC1=O)CC(C)C (configuration not stated)
[1]
  GI50: 10 µM (inactive) and 9.02 µM (inactive)
[2]
  GI50: 11.7 µM (inactive) and 15.5 µM (inactive)
[3]
  GI50: 69 nM (active)
[4]
  GI50: 136 nM (active)
[5]
  GI50: 1.28 µM (inactive) and 1.27 µM (inactive)
[6]
  GI50: 15.9 µM (inactive) and 13.8 µM (inactive)
[7]
  GI50: 15 µM and 14.7 µM
[8]
  GI50: 893 nM (active)
[9]
  GI50: 15.2 µM (inactive) and 12.1 µM (inactive)
[10]
  GI50: 173 nM (active) and 123 nM (active)
[11]
  GI50: 12.1 µM (inactive) and 13.8 µM (inactive)
[12]
  GI50: 19.7 µM (inactive) and 18.2 µM (inactive)
[13]
  GI50: 3.03 µM (inactive)
[14]
  GI50: 410 nM (active) and 818 nM (active)
[15]
  GI50: 1.3 µM (inactive) and 2.14 µM (inactive)
[16]
  GI50: 11.8 µM (inactive) and 10.9 µM (inactive)
[17]
  GI50: 278 nM (active) and 209 nM (active)
[18]
  GI50: 14.1 µM (inactive) and 14.8 µM (inactive)
[19]
  GI50: 14 µM (inactive) and 17.4 µM (inactive)
[20]
  GI50: 16.2 µM (inactive) and 18.2 µM (inactive)
[21]
  GI50: 6.7 µM (inactive) and 11.8 µM (inactive)
[22]
  GI50: 19 µM (inactive) and 17 µM (inactive)
[23]
  GI50: 8.89 µM (inactive) and 8.83 µM (inactive)
[24]
  GI50: 16.1 µM (inactive) and 21.8 µM (inactive)
[25]
  GI50: 10.8 µM (inactive) and 12.4 µM (inactive)
[26]
  GI50: 6.49 µM (inactive)
[27]
  GI50: 16.4 µM (inactive) and 11.9 µM (inactive)
[28]
  GI50: 19.3 µM (inactive)
[29]
  GI50: 8.49 µM (inactive)
[30]
  GI50: 10.5 µM (inactive) and 6.03 µM (inactive)
[31]
  GI50: 13.7 µM (inactive) and 11.1 µM (inactive)
[32]
  GI50: 1.51 µM (inactive)
[33]
  GI50: 4.37 µM (inactive) and 4.92 µM (inactive)
[34]
  GI50: 19.5 µM (inactive) and 11.7 µM (inactive)
[35]
  GI50: 8.13 µM (inactive)
[36]
  GI50: 16.4 µM (inactive) and 16.8 µM (inactive)
[37]
  GI50: 11.7 µM (inactive) and 15.2 µM (inactive)
